# Test results from patent publication US20250026778A1 (TIUMBIO CO., LTD., priority 2021, published 2025).
# Biological target: T1, his-galectin-3 (Homo sapiens, UniProt P17931)
# T1 construct: purchased Abcam
# Assay: TR-FRET assay (in vitro galectin-3 binding inhibitory activity test)
# Settings: Table 2; compound at 20 μM; 60 nM his-galectin-3, 15 nM biotin-ASF; read-out: % Inhibitory activity (at 20 μM)
# Procedure, shortened: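 Compound is premixed with his-galectin-3 (60 nM final), then biotin-ASF (15 nM), Tb anti-His antibody (2 nM) and streptavidin-d2 (20 nM) are added. After at least 3.5 hours at RT in HEPES/NaCl buffer with Tween 20 and BSA, TR-FRET is read at 615/665 nm. DMSO serves as the uninhibited control, ASF omission as background.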
# T1 sequence (P17931 whole entry): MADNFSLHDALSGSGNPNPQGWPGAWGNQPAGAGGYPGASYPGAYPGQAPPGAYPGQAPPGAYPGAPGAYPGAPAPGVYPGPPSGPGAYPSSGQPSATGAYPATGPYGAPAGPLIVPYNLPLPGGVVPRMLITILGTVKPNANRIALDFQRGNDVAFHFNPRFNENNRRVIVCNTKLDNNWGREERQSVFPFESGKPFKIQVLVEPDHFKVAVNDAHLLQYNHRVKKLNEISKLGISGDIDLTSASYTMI
row,SMILES,inhibition at 20 µM
1,"O=C(N[C@@H]1CCO[C@]12O[C@H](CO)[C@H](O)[C@H](n1cc(-c3cc(F)c(F)c(F)c3)nn1)[C@H]2O)c1coc2ccc(Br)cc12 [Compound A180, 5-bromo-N-((4R,5S,7R,8R,9S,10R)-8,10-dihydroxy-7-(hydroxymethyl)-9-(4-(3,4,5-trifluorophenyl)-1H-1,2,3-triazol-1-yl)-1,6-dioxaspiro[4.5]decan-4-yl)benzofuran-3-carboxamide]",> 75%
2,"O=C(N[C@@H]1CCO[C@]12O[C@H](CO)[C@H](O)[C@H](n1cc(-c3cc(F)c(F)c(F)c3)nn1)[C@H]2O)c1sc2ccccc2c1Br [Compound A181, 3-bromo-N-((4R,5S,7R,8R,9S,10R)-8,10-dihydroxy-7-(hydroxymethyl)-9-(4-(3,4,5-trifluorophenyl)-1H-1,2,3-triazol-1-yl)-1,6-dioxaspiro[4.5]decan-4-yl)benzo[b]thiophene-2-carboxamide]",> 75%
3,"O=C(N[C@@H]1CCO[C@]12O[C@H](CO)[C@H](O)[C@H](n1cc(-c3cc(F)c(F)c(F)c3)nn1)[C@H]2O)c1nsc2ccccc12 [Compound A182, N-((4R,5S,7R,8R,9S,10R)-8,10-dihydroxy-7-(hydroxymethyl)-9-(4-(3,4,5-trifluorophenyl)-1H-1,2,3-triazol-1-yl)-1,6-dioxaspiro[4.5]decan-4-yl)benzo[d]isothiazole-3-carboxamide]",50 to 75%
4,"O=C(Cc1cccc(Oc2ccccc2)c1)N[C@@H]1CCO[C@]12O[C@H](CO)[C@H](O)[C@H](n1cc(-c3cc(F)c(F)c(F)c3)nn1)[C@H]2O [Compound A183, N-((4R,5S,7R,8R,9S,10R)-8,10-dihydroxy-7-(hydroxymethyl)-9-(4-(3,4,5-trifluorophenyl)-1H-1,2,3-triazol-1-yl)-1,6-dioxaspiro[4.5]decan-4-yl)-2-(3-phenoxyphenyl)acetamide]",< 25%
5,"O=C(c1cccc2ccccc12)N1CCC[C@]2(C1)O[C@H](CO)[C@H](O)[C@H](n1cc(-c3cc(F)c(F)c(F)c3)nn1)[C@H]2O [Compound A185, ((2R,3R,4S,5R,6R)-3,5-dihydroxy-2-(hydroxymethyl)-4-(4-(3,4,5-trifluorophenyl)-1H-1,2,3-triazol-1-yl)-1-oxa-8-azaspiro[5.5]undecan-8-yl)(naphthalen-1-yl)methanone]",< 25%
6,"O=C(c1ccc2ccccc2c1)N1CCC[C@]2(C1)O[C@H](CO)[C@H](O)[C@H](n1cc(-c3cc(F)c(F)c(F)c3)nn1)[C@H]2O [Compound A186, ((2R,3R,4S,5R,6R)-3,5-dihydroxy-2-(hydroxymethyl)-4-(4-(3,4,5-trifluorophenyl)-1H-1,2,3-triazol-1-yl)-1-oxa-8-azaspiro[5.5]undecan-8-yl)(naphthalen-2-yl)methanone]",< 25%
7,"O=C(c1cc2ccccc2s1)N1CCC[C@]2(C1)O[C@H](CO)[C@H](O)[C@H](n1cc(-c3cc(F)c(F)c(F)c3)nn1)[C@H]2O [Compound A187, benzo[b]thiophen-2-yl((2R,3R,4S,5R,6R)-3,5-dihydroxy-2-(hydroxymethyl)-4-(4-(3,4,5-trifluorophenyl)-1H-1,2,3-triazol-1-yl)-1-oxa-8-azaspiro[5.5]undecan-8-yl)methanone]",< 25%
8,"O=C(c1ccccn1)N1CCC[C@]2(C1)O[C@H](CO)[C@H](O)[C@H](n1cc(-c3cc(F)c(F)c(F)c3)nn1)[C@H]2O [Compound A188, ((2R,3R,4S,5R,6R)-3,5-dihydroxy-2-(hydroxymethyl)-4-(4-(3,4,5-trifluorophenyl)-1H-1,2,3-triazol-1-yl)-1-oxa-8-azaspiro[5.5]undecan-8-yl)(pyridin-2-yl)methanone]",< 25%
9,"O=C(c1ccncc1)N1CCC[C@]2(C1)O[C@H](CO)[C@H](O)[C@H](n1cc(-c3cc(F)c(F)c(F)c3)nn1)[C@H]2O [Compound A189, ((2R,3R,4S,5R,6R)-3,5-dihydroxy-2-(hydroxymethyl)-4-(4-(3,4,5-trifluorophenyl)-1H-1,2,3-triazol-1-yl)-1-oxa-8-azaspiro[5.5]undecan-8-yl)(pyridin-4-yl)methanone]",< 25%
10,"O=C(c1cncs1)N1CCC[C@]2(C1)O[C@H](CO)[C@H](O)[C@H](n1cc(-c3cc(F)c(F)c(F)c3)nn1)[C@H]2O [Compound A190, ((2R,3R,4S,5R,6R)-3,5-dihydroxy-2-(hydroxymethyl)-4-(4-(3,4,5-trifluorophenyl)-1H-1,2,3-triazol-1-yl)-1-oxa-8-azaspiro[5.5]undecan-8-yl)(thiazol-5-yl)methanone]",< 25%
11,"OC[C@H]1O[C@@]2(CCCN(c3ccccc3)C2)[C@H](O)[C@@H](n2cc(-c3cc(F)c(F)c(F)c3)nn2)[C@H]1O [Compound A191, (2R,3R,4S,5R,6R)-2-(hydroxymethyl)-8-phenyl-4-(4-(3,4,5-trifluorophenyl)-1H-1,2,3-triazol-1-yl)-1-oxa-8-azaspiro[5.5]undecane-3,5-diol]",< 25%
12,"O=C(N[C@@H]1CCO[C@]12O[C@H](CO)[C@H](O)[C@H](n1cc(-c3cc(F)c(F)c(F)c3)nn1)[C@H]2O)c1ccc2c(Br)cccc2c1 [Compound A192, 5-bromo-N-((4R,5S,7R,8R,9S,10R)-8,10-dihydroxy-7-(hydroxymethyl)-9-(4-(3,4,5-trifluorophenyl)-1H-1,2,3-triazol-1-yl)-1,6-dioxaspiro[4.5]decan-4-yl)-2-naphthamide]",25 to 50%
13,"O=C(N[C@@H]1CCO[C@]12O[C@H](CO)[C@H](O)[C@H](n1cc(-c3cc(F)c(F)c(F)c3)nn1)[C@H]2O)c1ccc2ccccc2c1Br [Compound A193, 1-bromo-N-((4R,5S,7R,8R,9S,10R)-8,10-dihydroxy-7-(hydroxymethyl)-9-(4-(3,4,5-trifluorophenyl)-1H-1,2,3-triazol-1-yl)-1,6-dioxaspiro[4.5]decan-4-yl)-2-naphthamide]",50 to 75%
14,"O=C(N[C@@H]1CCO[C@]12O[C@H](CO)[C@H](O)[C@H](n1cc(-c3cc(F)c(F)c(F)c3)nn1)[C@H]2O)c1cccc2scnc12 [Compound A194, N-((4R,5S,7R,8R,9S,10R)-8,10-dihydroxy-7-(hydroxymethyl)-9-(4-(3,4,5-trifluorophenyl)-1H-1,2,3-triazol-1-yl)-1,6-dioxaspiro[4.5]decan-4-yl)benzo[d]thiazole-4-carboxamide]",50 to 75%
15,"O=C(N[C@@H]1CCO[C@]12O[C@H](CO)[C@H](O)[C@H](n1cc(-c3cc(F)c(F)c(F)c3)nn1)[C@H]2O)c1ccc2c(Cl)cccc2c1 [Compound A195, 5-chloro-N-((4R,5S,7R,8R,9S,10R)-8,10-dihydroxy-7-(hydroxymethyl)-9-(4-(3,4,5-trifluorophenyl)-1H-1,2,3-triazol-1-yl)-1,6-dioxaspiro[4.5]decan-4-yl)-2-naphthamide]",25 to 50%
16,"O=C(N[C@@H]1CCO[C@]12O[C@H](CO)[C@H](O)[C@H](n1cc(-c3cc(F)c(F)c(F)c3)nn1)[C@H]2O)c1ccc2sccc2c1 [Compound A196, N-((4R,5S,7R,8R,9S,10R)-8,10-dihydroxy-7-(hydroxymethyl)-9-(4-(3,4,5-trifluorophenyl)-1H-1,2,3-triazol-1-yl)-1,6-dioxaspiro[4.5]decan-4-yl)benzo[b]thiophene-5-carboxamide]",50 to 75%
17,"O=C(N[C@@H]1CCO[C@]12O[C@H](CO)[C@H](O)[C@H](n1cc(-c3cc(F)c(F)c(F)c3)nn1)[C@H]2O)c1nsc2cc(Br)ccc12 [Compound A197, 6-bromo-N-((4R,5S,7R,8R,9S,10R)-8,10-dihydroxy-7-(hydroxymethyl)-9-(4-(3,4,5-trifluorophenyl)-1H-1,2,3-triazol-1-yl)-1,6-dioxaspiro[4.5]decan-4-yl)benzo[d]isothiazole-3-carboxamide]",50 to 75%
18,"O=C(N[C@@H]1CCO[C@]12O[C@H](CO)[C@H](O)[C@H](n1cc(-c3cc(F)c(F)c(F)c3)nn1)[C@H]2O)c1cccc2sccc12 [Compound A198, N-((4R,5S,7R,8R,9S,10R)-8,10-dihydroxy-7-(hydroxymethyl)-9-(4-(3,4,5-trifluorophenyl)-1H-1,2,3-triazol-1-yl)-1,6-dioxaspiro[4.5]decan-4-yl)benzo[b]thiophene-4-carboxamide]",> 75%
19,"O=C(N[C@@H]1CCO[C@]12O[C@H](CO)[C@H](O)[C@H](n1cc(-c3cc(F)c(F)c(F)c3)nn1)[C@H]2O)c1noc2cc(Cl)ccc12 [Compound A199, 6-chloro-N-((4R,5S,7R,8R,9S,10R)-8,10-dihydroxy-7-(hydroxymethyl)-9-(4-(3,4,5-trifluorophenyl)-1H-1,2,3-triazol-1-yl)-1,6-dioxaspiro[4.5]decan-4-yl)benzo[d]isoxazole-3-carboxamide]",25 to 50%
20,"O=C(N[C@@H]1CCO[C@]12O[C@H](CO)[C@H](O)[C@H](n1cc(-c3cc(F)c(F)c(F)c3)nn1)[C@H]2O)c1cnc2sccn12 [Compound A200, N-((4R,5S,7R,8R,9S,10R)-8,10-dihydroxy-7-(hydroxymethyl)-9-(4-(3,4,5-trifluorophenyl)-1H-1,2,3-triazol-1-yl)-1,6-dioxaspiro[4.5]decan-4-yl)imidazo[2,1-b]thiazole-5-carboxamide]",50 to 75%

# Same assay, conditions: Table 3, found values; compound at 20 μM; 60 nM his-galectin-3, 15 nM biotin-ASF; read-out: % Inhibitory activity (at 20 μM)
row,SMILES,inhibition at 20 µM
1,"O=C(N[C@@H]1CCO[C@]12O[C@H](CO)[C@H](O)[C@H](n1cc(-c3cc(F)c(F)c(F)c3)nn1)[C@H]2O)c1nsc2ccccc12 [Compound A182, N-((4R,5S,7R,8R,9S,10R)-8,10-dihydroxy-7-(hydroxymethyl)-9-(4-(3,4,5-trifluorophenyl)-1H-1,2,3-triazol-1-yl)-1,6-dioxaspiro[4.5]decan-4-yl)benzo[d]isothiazole-3-carboxamide]",73%
2,"OC[C@H]1O[C@@]2(CCCN(c3ccccc3)C2)[C@H](O)[C@@H](n2cc(-c3cc(F)c(F)c(F)c3)nn2)[C@H]1O [Compound A191, (2R,3R,4S,5R,6R)-2-(hydroxymethyl)-8-phenyl-4-(4-(3,4,5-trifluorophenyl)-1H-1,2,3-triazol-1-yl)-1-oxa-8-azaspiro[5.5]undecane-3,5-diol]",24%
3,"O=C(N[C@@H]1CCO[C@]12O[C@H](CO)[C@H](O)[C@H](n1cc(-c3cc(F)c(F)c(F)c3)nn1)[C@H]2O)c1cnc2sccn12 [Compound A200, N-((4R,5S,7R,8R,9S,10R)-8,10-dihydroxy-7-(hydroxymethyl)-9-(4-(3,4,5-trifluorophenyl)-1H-1,2,3-triazol-1-yl)-1,6-dioxaspiro[4.5]decan-4-yl)imidazo[2,1-b]thiazole-5-carboxamide]",63.3%

# Same assay, conditions: read-out: % Inhibitory activity (at 20 μM), Table 2; compound at 20 μM; 60 nM his-galectin-3, 15 nM biotin-ASF
row,SMILES,inhibition at 20 µM
1,"O=C(Cc1ccccc1)N1CCC[C@]2(C1)O[C@H](CO)[C@H](O)[C@H](n1cc(-c3cc(F)c(F)c(F)c3)nn1)[C@H]2O [Compound A184, 1-((2R,3R,4S,5R,6R)-3,5-dihydroxy-2-(hydroxymethyl)-4-(4-(3,4,5-trifluorophenyl)-1H-1,2,3-triazol-1-yl)-1-oxa-8-azaspiro[5.5]undecan-8-yl)-2-phenylethanone]",< 25%
